According to ChEMBL document CHEMBL1201862, “PubChem BioAssay data set” (2004):
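Protocol summary: plate cells (96-well), add compound at 5 concentrations, incubate 48 h, interpolate endpoints linearly. GI50 marks 50% less growth.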 The source made the active and inactive calls. No stated cut-off is given here; in the data, active = GI50 up to about 1.1 µM and inactive = higher.

Tests used:
Assay in all cases: growth of human tumour cells (NCI), 48 h
MOLT-4 = test system: MOLT-4
HT-29 = test system: HT-29
MDA-MB-231 = test system: MDA-MB-231
SK-MEL-5 = test system: SK-MEL-5
NCI/ADR-RES = test system: NCI/ADR-RES
COLO 205 = test system: COLO 205
NCI-H522 = test system: NCI-H522
EKVX = test system: EKVX
SF-295 = test system: SF-295
OVCAR-5 = test system: OVCAR-5
HOP-62 = test system: HOP-62
HCT-15 = test system: HCT-15
K562 = test system: K562
SNB-19 = test system: SNB-19
U-251 = test system: U-251
CAKI-1 = test system: CAKI-1
T47D = test system: T47D
A549 = test system: A549
SK-MEL-2 = test system: SK-MEL-2
SR = test system: SR

SMILES | GI50 (MOLT-4) | GI50 (HT-29) | GI50 (MDA-MB-231) | GI50 (SK-MEL-5) | GI50 (NCI/ADR-RES) | GI50 (COLO 205) | GI50 (NCI-H522) | GI50 (EKVX) | GI50 (SF-295) | GI50 (OVCAR-5) | GI50 (HOP-62) | GI50 (HCT-15) | GI50 (K562) | GI50 (SNB-19) | GI50 (U-251) | GI50 (CAKI-1) | GI50 (T47D) | GI50 (A549) | GI50 (SK-MEL-2) | GI50 (SR)
COc1ccc(OC)c2c(/C=C/c3ccc(N(C)C)cc3)ccnc12 | 6.68 µM (inactive) | 4.11 µM (inactive) | 8.34 µM (inactive) | > 10 µM (inactive) | > 10 µM (inactive) | > 10 µM (inactive) | 8.02 µM (inactive) | > 10 µM (inactive) | > 10 µM (inactive) | > 10 µM (inactive) | > 10 µM (inactive) | > 10 µM | > 10 µM (inactive) | > 10 µM (inactive) | 5.31 µM (inactive) | > 10 µM (inactive) | > 10 µM (inactive) | > 10 µM (inactive) | > 10 µM (inactive) | –
O=C1NC2c3c(I)sc(I)c3/C(=N\O)C2O1 (configuration not stated) | 28.2 µM (inactive) | 17.9 µM (inactive) | 24 µM (inactive) | – | 20.4 µM (inactive) | 20.8 µM (inactive) | – | 10.9 µM (inactive) | 45.6 µM (inactive) | 30.5 µM (inactive) | 30.5 µM (inactive) | 24.4 µM | 19.9 µM (inactive) | 21.7 µM (inactive) | 23.1 µM (inactive) | 32.7 µM (inactive) | 35.2 µM (inactive) | 48.9 µM (inactive) | 63.7 µM (inactive) | 29.9 µM (inactive)
O=C1Cc2cc3ccccc3nc2-c2ccccc2N1 | > 100 µM (inactive) | 55.1 µM (inactive) | 20.5 µM (inactive) | > 100 µM (inactive) | 31.6 µM (inactive) | > 100 µM (inactive) | 26.7 µM (inactive) | 67 µM (inactive) | 85.5 µM (inactive) | > 100 µM (inactive) | 56 µM (inactive) | 96.6 µM | 39.9 µM (inactive) | 49.2 µM (inactive) | 60 µM (inactive) | 32.7 µM (inactive) | 38.5 µM (inactive) | 63.7 µM (inactive) | > 100 µM (inactive) | –
CCN(CCCl)c1cccc(NC(=O)c2ccc(C(=O)Nc3cccc(CN(C)C)c3)cc2)c1 | 0.0246 µM (active) | 0.0597 µM (active) | 0.195 µM (active) | 0.0118 µM (active) | 2.76 µM (inactive) | 0.11 µM (active) | < 0.01 µM (active) | – | 0.125 µM (active) | 1.48 µM (inactive) | 0.0641 µM (active) | 0.605 µM | 0.0422 µM (active) | 0.0497 µM (active) | 0.0349 µM (active) | 0.302 µM (active) | 0.0412 µM (active) | 0.211 µM (active) | 0.0301 µM (active) | 0.037 µM (active)
O=C(O)CCSC1=NCCN1 | – | > 100 µM (inactive) | > 100 µM (inactive) | > 100 µM (inactive) | > 100 µM (inactive) | > 100 µM (inactive) | > 100 µM (inactive) | > 100 µM (inactive) | > 100 µM (inactive) | > 100 µM (inactive) | > 100 µM (inactive) | > 100 µM | > 100 µM (inactive) | > 100 µM (inactive) | > 100 µM (inactive) | > 100 µM (inactive) | > 100 µM (inactive) | > 100 µM (inactive) | > 100 µM (inactive) | > 100 µM (inactive)
CCC(/C=C/c1ccccc1)=N\NC(=S)N/N=C(/C=C/c1ccccc1)CC | 5.51 µM (inactive) | 55.1 µM (inactive) | > 100 µM (inactive) | 23 µM (inactive) | 29.6 µM (inactive) | 30.8 µM (inactive) | 30.5 µM (inactive) | > 100 µM (inactive) | 87.7 µM (inactive) | – | > 100 µM (inactive) | 26.5 µM | 19.6 µM (inactive) | 63 µM (inactive) | 18.1 µM (inactive) | > 100 µM (inactive) | 35.9 µM (inactive) | 17.2 µM (inactive) | – | 16.9 µM (inactive)
CCCCCCCCCc1cccc(N2C(N)=NC(N)=NC2(C)C)c1 | < 0.0273 µM (active) | < 0.01 µM (active) | 0.302 µM (active) | 0.0277 µM (active) | 4.62 µM (inactive) | 0.0209 µM (active) | 0.0451 µM (active) | < 0.0329 µM (active) | 0.0148 µM (active) | – | < 0.0237 µM (active) | < 0.01 µM | < 0.01 µM (active) | – | < 0.01 µM (active) | 0.293 µM (active) | 0.528 µM (active) | < 0.01 µM (active) | 0.993 µM (active) | < 0.01 µM (active)
Cc1cc([C@H](C#N)c2nc3ccccc3[nH]2)nc(Cl)n1 | > 100 µM (inactive) | 41.7 µM (inactive) | 59.3 µM (inactive) | 13.7 µM (inactive) | 30.1 µM (inactive) | 42.1 µM (inactive) | – | 62.2 µM (inactive) | > 100 µM (inactive) | – | – | 25.8 µM | > 100 µM (inactive) | 71.6 µM (inactive) | 23.6 µM (inactive) | 98.4 µM (inactive) | 21.3 µM (inactive) | 33.9 µM (inactive) | 26.5 µM (inactive) | 54.8 µM (inactive)
